Data from patent publication US11026944B2, “Compositions and methods for treating insomnia” (Eisai R&D Management Co., Ltd., priority 2014, dated 2021).

Tested on: subjects with insomnia
Assay: 201 Study: polysomnography (SE, LPS, WASO) dose-response
Format: in vivo, human
Experimental: This was a multi-center, randomized, double-blind, adaptive design, dose-response study in subjects with insomnia. Subjects were randomized to 1 of 6 doses of compound A (1 mg, 2.5 mg, 5 mg, 10 mg, 15 mg and 25 mg) or placebo.
The study had 2 phases: Prerandomization and Randomization. The Prerandomization Phase lasted up to 21 days and consisted of a Screening Period (Days-21 to -2) and a Baseline Period (Day-1). After the Baseline Period, all eligible subjects were randomized in a double-blind manner to receive compound A or placebo for 15 nights during the Treatment Period (Days 1 to 15). All subjects then received placebo in a single-blind manner, for 2 nights (Days 16 to 17) during the Rebound Insomnia Assessment Period (Days 16 to 18). […] All subjects came to the clinic for screening procedures. During the Screening Period, subjects completed the Sleep Diary each day. Polysomnographic sleep was measured during the Screening Period on 2 consecutive nights between Day-9 and Day-3. The 8-hour polysomnograms (PSGs) were started at the median habitual bedtime calculated from responses on the Sleep Diary, which were completed for 7 days before the first PSG night. These recordings served as both eligibility screening PSGs and as Baseline PSGs. Subjects could leave the clinic between the screening/Baseline PSG nights.
All subjects returned to the clinic on Day-1 for Baseline Period procedures. They remained in the clinic until Day 3. Morning assessments on Day 1 provided the Baseline values for the KSS, the Digit Symbol Substitution Test (DSST), and the Reaction Time Index (RTI). Assessments at 6 hours after waketime provided the Baseline values for the Waking Function Battery (WFB), and the Profile of Mood States-Brief (POMS-B). Subjects were then randomized to receive 1 of 6 doses of compound A or placebo for the next 15 days. Study drugs were tablets containing compound A-matched placebo or compound A of 1 mg, 2.5 mg, 5 mg, or 10 mg and to be ingested 30 minutes before the median habitual bedtime calculated from their Sleep Diary responses during the Screening Period. An 8-hour PSG, starting at the same bedtime as used for the screening and Baseline PSG nights, was recorded on the first 2 treatment nights (Days 1 and 2). The Sleep Diary continued to be completed each day in the clinic, and assessments of insomnia severity (ISI), next-day residual effects (KSS, DSST, and RTI) were conducted while subjects were in the clinic. On specified study days, plasma concentrations of compound A were assessed while subjects were in the clinic in the morning after awakening and at trough just before dosing.
Subjects continued to take compound A or placebo 30 minutes before their anticipated, self-selected bedtime and continued to complete the Sleep Diary each day while at home during the Treatment Period. On Day 14 of the Treatment Period, subjects returned to the clinic. They remained in the clinic for 4 nights and the intervening days until Day 18. Eight-hour PSGs were recorded each night in the clinic, to start at the median habitual bedtime calculated from responses on the Sleep Diary completed on Days 3 to 13. The Sleep Diary continued to be completed each day in the clinic, and the ISI, KSS, DSST, RTI, were administered at prespecified time points during the daytime hours.
In Table 5, “Baseline” was defined as the mean of the screening PSG 1 and 2, within −9 to −3 days of randomization. “LS Means Diff” refers to the differences between LS Means of Placebo and each compound A dose, “95% CI” means to 95% CI of LS Means Diff. “p-value” was analyzed using analysis of covariance (ANCOVA) with baseline as a covariate.
In Table 7, “Baseline” was defined as the mean of the screening PSG 1 and 2, within −9 to −3 days of randomization. “p-value” was analyzed using analysis of covariance (ANCOVA) with baseline as a covariate.
In Table 8, “Baseline” was defined as the mean of the screening PSG 1 and 2, within −9 to −3 days of randomization. […]

[1] = Days 14 & 15 minus Days 1 & 2, 1 mg nightly
[2] = Days 14 & 15 minus Days 1 & 2, 2.5 mg nightly
[3] = Days 14 & 15 minus Days 1 & 2, 5 mg nightly
[4] = Days 14 & 15 minus Days 1 & 2, 10 mg nightly
[5] = Days 14 & 15 minus Days 1 & 2, 15 mg nightly
[6] = Days 14 & 15 minus Days 1 & 2, 25 mg nightly

Cc1ncc(OC[C@@]2(c3cccc(F)c3)C[C@H]2C(=O)Nc2ccc(F)cn2)c(C)n1 [Compound A, (1R,2 S)-2-(((2,4-dimethylpyrimidin-5-yl)oxy)methyl)-2-(3-fluorophenyl)-N-(5-fluoropyridin-2-yl) cyclopropanecarboxamide]
Change from Baseline in LPS, Mean of Days 1 & 2: Geometric Mean Ratio (compound A/placebo) (1 mg nightly): 0.77
Change from Baseline in LPS, Mean of Days 14 & 15: Geometric Mean Ratio (compound A /placebo) (1 mg nightly): 0.73
Change from Baseline in SE, Mean of Days 1 & 2: LS Means Diff vs placebo (1 mg nightly): 4.57%
Change from Baseline in SE, Mean of Days 1 & 2: Mean (1 mg nightly): 21.1%
Change from Baseline in SE, Mean of Days 14 & 15: LS Means Diff vs placebo (1 mg nightly): 0.34%
Change from Baseline in SE, Mean of Days 14 & 15: Mean (1 mg nightly): 17.5%
Change from Baseline in WASO, Mean of Days 1 & 2: LS Means Diff vs placebo (1 mg nightly): -11.1 min
Change from Baseline in WASO, Mean of Days 1 & 2: Mean (1 mg nightly): -60.9 min
Change from Baseline in WASO, Mean of Days 14 & 15: LS Means Diff vs placebo (1 mg nightly): 5.7 min
Change from Baseline in WASO, Mean of Days 14 & 15: Mean (1 mg nightly): -43.6 min
LPS geometric mean ratio vs placebo, significance (1 mg, Mean of Days 1/2): not statistically significant
Change from Baseline in LPS, Mean of Days 1 & 2: Geometric Mean Ratio (compound A/placebo) (2.5 mg nightly): 0.55
Change from Baseline in LPS, Mean of Days 14 & 15: Geometric Mean Ratio (compound A /placebo) (2.5 mg nightly): 0.49
Change from Baseline in SE, Mean of Days 1 & 2: LS Means Diff vs placebo (2.5 mg nightly): 4.44%
Change from Baseline in SE, Mean of Days 1 & 2: Mean (2.5 mg nightly): 21.3%
Change from Baseline in SE, Mean of Days 14 & 15: LS Means Diff vs placebo (2.5 mg nightly): 3.94%
Change from Baseline in SE, Mean of Days 14 & 15: Mean (2.5 mg nightly): 20.7%
Change from Baseline in WASO, Mean of Days 1 & 2: LS Means Diff vs placebo (2.5 mg nightly): -2.3 min
Change from Baseline in WASO, Mean of Days 1 & 2: Mean (2.5 mg nightly): -51.1 min
Change from Baseline in WASO, Mean of Days 14 & 15: LS Means Diff vs placebo (2.5 mg nightly): -2.3 min
Change from Baseline in WASO, Mean of Days 14 & 15: Mean (2.5 mg nightly): -48.9 min
Change from Baseline in LPS, Mean of Days 1 & 2: Geometric Mean Ratio (compound A/placebo) (5 mg nightly): 0.60
Change from Baseline in LPS, Mean of Days 14 & 15: Geometric Mean Ratio (compound A /placebo) (5 mg nightly): 0.47
Change from Baseline in SE, Mean of Days 1 & 2: LS Means Diff vs placebo (5 mg nightly): 5.74%
Change from Baseline in SE, Mean of Days 1 & 2: Mean (5 mg nightly): 21.2%
Change from Baseline in SE, Mean of Days 14 & 15: LS Means Diff vs placebo (5 mg nightly): 5.76%
Change from Baseline in SE, Mean of Days 14 & 15: Mean (5 mg nightly): 21.0%
Change from Baseline in WASO, Mean of Days 1 & 2: LS Means Diff vs placebo (5 mg nightly): -11.3 min
Change from Baseline in WASO, Mean of Days 1 & 2: Mean (5 mg nightly): -55.6 min
Change from Baseline in WASO, Mean of Days 14 & 15: LS Means Diff vs placebo (5 mg nightly): -10.7 min
Change from Baseline in WASO, Mean of Days 14 & 15: Mean (5 mg nightly): -52.2 min
LPS, Days 1/2 compared to Days 14/15 (10 mg): further improvement in LPS over time
Change from Baseline in LPS, Mean of Days 1 & 2: Geometric Mean Ratio (compound A/placebo) (10 mg nightly): 0.54
Change from Baseline in LPS, Mean of Days 14 & 15: Geometric Mean Ratio (compound A /placebo) (10 mg nightly): 0.32
Change from Baseline in SE, Mean of Days 1 & 2: LS Means Diff vs placebo (10 mg nightly): 8.09%
Change from Baseline in SE, Mean of Days 1 & 2: Mean (10 mg nightly): 21.9%
Change from Baseline in SE, Mean of Days 14 & 15: LS Means Diff vs placebo (10 mg nightly): 7.78%
Change from Baseline in SE, Mean of Days 14 & 15: Mean (10 mg nightly): 21.7%
Change from Baseline in WASO, Mean of Days 1 & 2: LS Means Diff vs placebo (10 mg nightly): -19.8 min
Change from Baseline in WASO, Mean of Days 1 & 2: Mean (10 mg nightly): -56.7 min
Change from Baseline in WASO, Mean of Days 14 & 15: LS Means Diff vs placebo (10 mg nightly): -14.7 min
Change from Baseline in WASO, Mean of Days 14 & 15: Mean (10 mg nightly): -48.5 min
Change from Baseline in LPS, Mean of Days 1 & 2: Geometric Mean Ratio (compound A/placebo) (15 mg nightly): 0.52
Change from Baseline in LPS, Mean of Days 14 & 15: Geometric Mean Ratio (compound A /placebo) (15 mg nightly): 0.41
Change from Baseline in SE, Mean of Days 1 & 2: LS Means Diff vs placebo (15 mg nightly): 10.06%
Change from Baseline in SE, Mean of Days 1 & 2: Mean (15 mg nightly): 23.8%
Change from Baseline in SE, Mean of Days 14 & 15: LS Means Diff vs placebo (15 mg nightly): 7.89%
Change from Baseline in SE, Mean of Days 14 & 15: Mean (15 mg nightly): 21.2%
Change from Baseline in WASO, Mean of Days 1 & 2: LS Means Diff vs placebo (15 mg nightly): -29.3 min
Change from Baseline in WASO, Mean of Days 1 & 2: Mean (15 mg nightly): -66.1 min
Change from Baseline in WASO, Mean of Days 14 & 15: LS Means Diff vs placebo (15 mg nightly): -20.8 min
Change from Baseline in WASO, Mean of Days 14 & 15: Mean (15 mg nightly): -53.4 min
Change from Baseline in LPS, Mean of Days 1 & 2: Geometric Mean Ratio (compound A/placebo) (25 mg nightly): 0.39
Change from Baseline in LPS, Mean of Days 14 & 15: Geometric Mean Ratio (compound A /placebo) (25 mg nightly): 0.34
Change from Baseline in SE, Mean of Days 1 & 2: LS Means Diff vs placebo (25 mg nightly): 10.13%
Change from Baseline in SE, Mean of Days 1 & 2: Mean (25 mg nightly): 22.7%
Change from Baseline in SE, Mean of Days 14 & 15: LS Means Diff vs placebo (25 mg nightly): 8.87%
Change from Baseline in SE, Mean of Days 14 & 15: Mean (25 mg nightly): 21.4%
Change from Baseline in WASO, Mean of Days 1 & 2: LS Means Diff vs placebo (25 mg nightly): -25.8 min
Change from Baseline in WASO, Mean of Days 1 & 2: Mean (25 mg nightly): -62.3 min
Change from Baseline in WASO, Mean of Days 14 & 15: LS Means Diff vs placebo (25 mg nightly): -21.5 min
Change from Baseline in WASO, Mean of Days 14 & 15: Mean (25 mg nightly): -53.9 min
SE (B)-(A) Potential Habituation Effect: LS Means Diff vs placebo [1]: −3.3%
SE (B)-(A) Potential Habituation Effect: Mean [1]: −4.0%
WASO (B)-(A) Potential Habituation Effect: LS Means Diff vs placebo [1]: 13.2 min
WASO (B)-(A) Potential Habituation Effect: Mean [1]: 18.0 min
SE (B)-(A) Potential Habituation Effect: LS Means Diff vs placebo [2]: 0.3%
SE (B)-(A) Potential Habituation Effect: Mean [2]: −0.5%
WASO (B)-(A) Potential Habituation Effect: LS Means Diff vs placebo [2]: -2.9 min
WASO (B)-(A) Potential Habituation Effect: Mean [2]: 2.2 min
SE (B)-(A) Potential Habituation Effect: LS Means Diff vs placebo [3]: 1.0%
SE (B)-(A) Potential Habituation Effect: Mean [3]: 0.1%
WASO (B)-(A) Potential Habituation Effect: LS Means Diff vs placebo [3]: -2.9 min
WASO (B)-(A) Potential Habituation Effect: Mean [3]: 2.7 min
SE (B)-(A) Potential Habituation Effect: LS Means Diff vs placebo [4]: 0.3%
SE (B)-(A) Potential Habituation Effect: Mean [4]: −0.7%
WASO (B)-(A) Potential Habituation Effect: LS Means Diff vs placebo [4]: 2.8 min
WASO (B)-(A) Potential Habituation Effect: Mean [4]: 9.3 min
SE (B)-(A) Potential Habituation Effect: LS Means Diff vs placebo [5]: −1.3%
SE (B)-(A) Potential Habituation Effect: Mean [5]: −2.3%
WASO (B)-(A) Potential Habituation Effect: LS Means Diff vs placebo [5]: 5.2 min
WASO (B)-(A) Potential Habituation Effect: Mean [5]: 11.8 min
SE (B)-(A) Potential Habituation Effect: LS Means Diff vs placebo [6]: −1.1%
SE (B)-(A) Potential Habituation Effect: Mean [6]: −2.1%
WASO (B)-(A) Potential Habituation Effect: LS Means Diff vs placebo [6]: 2.7 min
WASO (B)-(A) Potential Habituation Effect: Mean [6]: 9.3 min
LPS (B)-(A) Potential Habituation Effect: Geometric Mean Ratio (compound A/placebo) (Days 14 & 15 vs Days 1 & 2, 1 mg nightly): 0.93
LPS (B)-(A) Potential Habituation Effect: Geometric Mean Ratio (compound A/placebo) (Days 14 & 15 vs Days 1 & 2, 2.5 mg nightly): 0.90
LPS (B)-(A) Potential Habituation Effect: Geometric Mean Ratio (compound A/placebo) (Days 14 & 15 vs Days 1 & 2, 5 mg nightly): 0.77
LPS (B)-(A) Potential Habituation Effect: Geometric Mean Ratio (compound A/placebo) (Days 14 & 15 vs Days 1 & 2, 10 mg nightly): 0.60
LPS (B)-(A) Potential Habituation Effect: Geometric Mean Ratio (compound A/placebo) (Days 14 & 15 vs Days 1 & 2, 15 mg nightly): 0.76
LPS (B)-(A) Potential Habituation Effect: Geometric Mean Ratio (compound A/placebo) (Days 14 & 15 vs Days 1 & 2, 25 mg nightly): 0.89
WASO, Days 1/2 compared to Days 14/15 (all doses): no statistical evidence of an increase or decrease in WASO
LPS geometric mean ratios vs placebo, significance (all other doses (2.5-25 mg), Mean of Days 1/2): evidence of statistical significance
WASO change from baseline vs placebo, significance (mean of Days 1/2, doses of 10 mg and above): statistically significant against placebo
WASO change from baseline vs placebo, significance (mean of Days 14/15, doses 15 mg and above): statistically significant against placebo
